According to US20080085893A1, “MATRIX METALLOPROTEASE INHIBITORS” (priority 2006, published 2008):
“And” between values parts separate entries of the source, which are not always exact repeats. Identical values can stand only once. Like-named read-outs stand apart in the source and are kept apart here.

Legend:
[1] = target: T1, human MMP-2 (amino acids 1-660) (Homo sapiens, UniProt P08253); assay: MMP dose response assay for determining IC50, MMP-2; format: biochemical; settings: for inhibition at 10 µM: read-out: MMP-2 % inhibition at 10 μM
T1 construct: human MMP-2 (amino acids 1-660); made in house
T1 sequence (P08253 110-660): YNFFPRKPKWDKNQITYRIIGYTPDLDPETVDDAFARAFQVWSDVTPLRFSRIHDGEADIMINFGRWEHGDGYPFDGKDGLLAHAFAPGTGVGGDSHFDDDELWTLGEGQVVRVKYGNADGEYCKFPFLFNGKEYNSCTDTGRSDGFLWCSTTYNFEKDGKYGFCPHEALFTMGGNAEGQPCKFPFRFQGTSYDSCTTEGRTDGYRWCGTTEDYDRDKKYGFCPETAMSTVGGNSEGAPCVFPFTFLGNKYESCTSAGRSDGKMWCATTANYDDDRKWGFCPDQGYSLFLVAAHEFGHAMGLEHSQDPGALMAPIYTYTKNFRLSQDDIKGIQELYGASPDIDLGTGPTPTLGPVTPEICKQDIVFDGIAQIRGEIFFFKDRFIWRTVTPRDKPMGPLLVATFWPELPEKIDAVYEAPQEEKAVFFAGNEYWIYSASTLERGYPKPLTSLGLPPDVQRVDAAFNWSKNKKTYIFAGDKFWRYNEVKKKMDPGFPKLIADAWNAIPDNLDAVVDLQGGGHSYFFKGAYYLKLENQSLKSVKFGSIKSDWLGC
Procedure: (§1) MMP Dose Response Assay for Determining IC50
(§2) The following method was used for determining IC50 values of different inhibitor compounds against multiple MMP enzymes. Frozen stocks of recombinantly produced MMPs were prepared in assay buffer (50 mM HEPES pH 7.4, 10 mM CaCl2, 0.05% Brij-35). […] Enzyme concentrations in the assay were determined empirically and set such that proteolytic activity was maintained in a linear range over the time-course of the experiment. […] Each concentration for each test compound was tested in triplicate. MMP enzymes were equilibrated with compounds for 1 hour at room temperature, then a fluorescent-quench substrate (Acetyl-Cys(Eu)-Pro-Leu-Gly-Leu-Lys-(QSY7)-Ala-Arg-amide) was added to a final concentration of 100 nM. […] Data was analyzed by first calculating average background value from wells that contained only substrate, and this value was subtracted from the entire plate. The 100%, or maximum value, was determined by averaging control wells that contained enzyme, substrate and DMSO. For each well, the percent of control was calculated by dividing the well value by the average DMSO value obtained above.

[2] = target: T2, human MMP-9 (amino acids 107-446) (Homo sapiens, UniProt P14780); assay: MMP dose response assay for determining IC50, MMP-9; format: biochemical; settings: for IC50: recombinant enzyme, fluorescent-quench substrate 100 nM, read-out: MMP-9; for inhibition at 10 µM: read-out: MMP-9 % inhibition at 10 μM
T2 construct: human MMP-9 (amino acids 107-446); made in house
T2 sequence (P14780 107-446): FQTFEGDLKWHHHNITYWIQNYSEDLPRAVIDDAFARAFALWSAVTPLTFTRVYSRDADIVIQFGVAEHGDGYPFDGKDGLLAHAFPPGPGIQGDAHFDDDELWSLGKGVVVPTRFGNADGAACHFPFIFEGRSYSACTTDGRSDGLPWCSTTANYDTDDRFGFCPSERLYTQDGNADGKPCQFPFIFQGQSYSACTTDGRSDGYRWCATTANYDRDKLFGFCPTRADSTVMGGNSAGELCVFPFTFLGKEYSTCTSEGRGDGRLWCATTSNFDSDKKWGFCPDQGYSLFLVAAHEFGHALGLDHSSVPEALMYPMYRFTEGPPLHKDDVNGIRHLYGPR
Procedure: as §1, §2

[3] = recombinant enzyme, fluorescent-quench substrate 100 nM, read-out: MMP-2

| SMILES | IC50 [1, 3] | IC50 [2] | inhibition at 10 µM [1] [%] | inhibition at 10 µM [2] [%] | IC50 ([1]; MMP-2 (nM)) [nM] |
| --- | --- | --- | --- | --- | --- |
| CC(C)CN(O)C(=O)[C@H](CN(c1ccc(Oc2ccc(C(F)(F)F)cc2)cc1)S(C)(=O)=O)N1CCOCC1 [Example 5, N-Hydroxy,N-(2-methylpropyl)(2S)-2-(morpholin-4-yl)-3-{N-[4-(4-trifluoromethylphenoxy)phenyl],N-methanesulfonylamino}propionamide] | 261 nM | 87.9 nM | – | – | – |
| Cc1ccc(Oc2ccc(N(C[C@@H](O)C(=O)NO)S(C)(=O)=O)cc2)cc1 [Example 7, N-Hydroxy (2R)-2-hydroxy-3-{N-[4-(4-methylphenoxy)phenyl],N-methanesulfonylamino}propionamide] | 81.7 nM and 52 nM | 20.6 nM and 3.13 nM | – | – | – |
| Cc1ccc(Oc2ccc(N(C[C@H](O)C(=O)NO)S(C)(=O)=O)cc2)cc1 [Example 8, N-Hydroxy (2S)-2-hydroxy-3-{N-[4-(4-methylphenoxy)phenyl],N-methanesulfonylamino}propionamide] | 88.5 nM and 67.8 nM and 98.2 nM and 65 nM and 51.9 nM and 71.5 nM | 10.5 nM and 11.1 nM and 10.1 nM and 3.37 nM and 4.69 nM and 7.57 nM | – | – | – |
| CS(=O)(=O)N(C[C@@H](O)C(=O)NO)c1ccc(-c2ccccc2)cc1 [Example 9, N-Hydroxy (2R)-2-hydroxy-3-[N-(4-phenyl)phenyl,N-methanesulfonylamino]propionamide] | – | – | 83.6 | 78.7 | – |
| CS(=O)(=O)N(C[C@H](O)C(=O)NO)c1ccc(-c2ccccc2)cc1 [Example 10, N-Hydroxy (2S)-2-hydroxy-3-[N-(4-phenyl)phenyl,N-methanesulfonylamino]propionamide] | – | – | 87 | 79 | – |
| COc1ccc(N[C@@H](CN(c2ccc(Oc3ccc(C)cc3)cc2)S(C)(=O)=O)C(=O)NO)cc1 [Example 48, N-Hydroxy (2S)-2-(4-methoxyphenyl)amino-3-{N-[4-(4-methylphenoxy)phenyl],N-methanesulfonylamino}propionamide] | 18.5 nM | 0.69 nM | – | – | – |
| Cc1ccc(Sc2ccc(N(C[C@H](O)C(=O)NO)S(C)(=O)=O)cc2)cc1 [Example 49, N-Hydroxy (2S)-2-hydroxy-3-{N-[4-(4-methylthiophenoxy)phenyl],N-methanesulfonylamino}propionamide] | 274 nM and 321 nM | 62.8 nM and 44.5 nM | – | – | – |
| Cc1ccc(Oc2ccc(N(C[C@H](Nc3ccc(OC(F)(F)F)cc3)C(=O)NO)S(C)(=O)=O)cc2)cc1 [Example 50, N-Hydroxy (2S)-3-{N-[4-(4-methylphenoxy)phenyl],N-methanesulfonylamino}-2-(4-trifluoromethoxyphenyl)aminopropionamide] | 877 nM | 73.6 nM | – | – | – |
| COc1cccc(N[C@@H](CN(c2ccc(Oc3ccc(C)cc3)cc2)S(C)(=O)=O)C(=O)NO)c1 [Example 51, N-Hydroxy (2S)-2-(3-methoxyphenyl)amino-3-{N-[4-(4-methylphenoxy)phenyl],N-methanesulfonylamino}propionamide] | 26.8 nM | 0.62 nM | – | – | – |
| Cc1ccc(Oc2ccc(N(C[C@H](Nc3cccc(OC(F)(F)F)c3)C(=O)NO)S(C)(=O)=O)cc2)cc1 [Example 52, N-Hydroxy (2S)-3-{N-[4-(4-methylphenoxy)phenyl],N-methanesulfonylamino}-2-(3-trifluoromethoxyphenyl)aminopropionamide] | 1080 nM | 165 nM | – | – | – |
| CS(=O)(=O)N(C[C@H](O)C(=O)NO)c1ccc(Oc2ccc(C(F)(F)F)cn2)cc1 [Example 53, N-Hydroxy (2S)-2-hydroxy-3-{N-{4-[(5-trifluoromethylpyridin-2-yl)oxy]phenyl},N-methanesulfonylamino}propionamide] | – | 472 nM | – | – | – |
| CS(=O)(=O)N(C[C@H](O)C(=O)NO)c1ccc(Oc2ccc(C(F)(F)F)cc2)cc1 [Example 54, N-Hydroxy (2S)-2-hydroxy-3-{N-[4-(4-trifluoromethylphenoxy)phenyl],N-methanesulfonylamino}propionamide] | 175 nM and 102 nM | 17.2 nM and 10.7 nM | – | – | – |
| CS(=O)(=O)N(C[C@H](Nc1cccc(F)c1)C(=O)NO)c1ccc(Oc2ccc(C(F)(F)F)cn2)cc1 [Example 55, N-Hydroxy (2S)-2-(3-fluorophenyl)amino-3-{N-{4-[(5-trifluoromethylpyridin-2-yl)oxy]phenyl},N-methanesulfonylamino}propionamide] | 1560 nM | 410 nM | – | – | – |
| CC(C)N[C@@H](CN(c1ccc(Oc2ccc(C(F)(F)F)cn2)cc1)S(C)(=O)=O)C(=O)NO [Example 56, N-Hydroxy (2S)-2-(2-propyl)amino-3-{N-{4-[(5-trifluoromethylpyridin-2-yl)oxyl]phenyl},N-methanesulfonylamino}propionamide] | 396 nM | 144 nM | – | – | – |
| CS(=O)(=O)N(C[C@@H](C(=O)NO)N1CCOCC1)c1ccc(Oc2ccc(C(F)(F)F)cn2)cc1 [Example 57, N-Hydroxy (2S)-2-(morpholin-4-yl)-3-{N-{4-[(5-trifluoromethylpyridin-2-yl)oxy]phenyl},N-methanesulfonylamino}propionamide] | 406 nM | 227 nM | – | – | – |
| CC(C)N[C@@H](CN(c1ccc(Oc2ccc(C(F)(F)F)cc2)cc1)S(C)(=O)=O)C(=O)NO [Example 58, N-Hydroxy (2S)-2-(2-propyl)amino-3-{N-[4-(4-trifluoromethylphenoxy)phenyl],N-methanesulfonylamino}propionamide] | 9.16 nM | 2.37 nM | – | – | – |
| CS(=O)(=O)N(C[C@H](Nc1cccc(F)c1)C(=O)NO)c1ccc(Oc2ccc(C(F)(F)F)cc2)cc1 [Example 59, N-Hydroxy (2S)-2-(3-fluorophenyl)amino-3-{N-[4-(4-trifluoromethylphenoxy)phenyl],N-methanesulfonylamino}propionamide] | 466 nM | 31.9 nM | – | – | – |
| COc1ccc(C#Cc2ccc(N(C[C@H](O)C(=O)NO)S(C)(=O)=O)cc2)cc1 [Example 61, N-Hydroxy (2S)-2-hydroxy-3-{N-[4-(4-methoxyphenylacetylene)phenyl],N-methanesulfonylamino}propionamide] | – | 91 nM | – | – | 31.6 |
| CS(=O)(=O)N(C[C@@H](C(=O)NO)N1CCC(O)CC1)c1ccc(Oc2ccc(Cl)cc2)cc1 [Example 88, N-Hydroxy (2S)-3-{N-[4-(4-chlorophenoxy)phenyl],N-methanesulfonylamino}-2-(4-hydroxypiperidin-1-yl)propionamide] | 3.13 nM | 0.9 nM | – | – | – |
| CS(=O)(=O)N(C[C@@H](C(=O)NO)N1CCOCC1)c1ccc(Oc2ccc(Cl)cc2)cc1 [Example 89, N-Hydroxy (2S)-2-(morpholin-4-yl)-3-{N-[4-(4-chlorophenoxy)phenyl],N-methanesulfonylamino}propionamide] | 5.52 nM | 2 nM | – | – | – |
| CS(=O)(=O)N(C[C@H](O)C(=O)NO)c1ccc(Sc2ccc(F)cc2)cc1 [Example 90, N-Hydroxy (2S)-2-hydroxy-3-{N-[4-(4-fluorothiophenoxy)phenyl],N-methanesulfonylamino}propionamide] | 312 nM and 254 nM | 64.4 nM and 39.2 nM | – | – | – |
| CC(C)N1CCN([C@@H](CN(c2ccc(Oc3ccc(Cl)cc3)cc2)S(C)(=O)=O)C(=O)NO)CC1 [Example 91, N-Hydroxy (2S)-3-{N-[4-(4-chlorophenoxy)phenyl],N-methanesulfonylamino}-2-[4-(2-propyl)piperazin-1-yl]Propionamide] | 8.77 nM | 3.11 nM | – | – | – |
| CN1CCN([C@@H](CN(c2ccc(Oc3ccc(Cl)cc3)cc2)S(C)(=O)=O)C(=O)NO)CC1 [Example 92, N-Hydroxy (2S)-3-{N-[4-(4-chlorophenoxy)phenyl],N-methanesulfonylamino}-2-(4-methylpiperazin-1-yl)propionamide] | 6.5 nM | 2.39 nM | – | – | – |
| CS(=O)(=O)N(C[C@H](NC(=O)C1CCOCC1)C(=O)NO)c1ccc(Oc2ccc(C(F)(F)F)cc2)cc1 [Example 93, N-Hydroxy (2S)-2-[(tetrahydropyran-4-yl)carbonylamino]-3-{N-[4-(4-trifluoromethylphenoxy)phenyl],N-methanesulfonylamino}propionamide] | 836 nM | 54.1 nM | – | – | – |
| CC(C)CC#Cc1ccc(N(C[C@@H](C(=O)NO)N2CCOCC2)S(C)(=O)=O)cc1 [Example 94, N-Hydroxy (2S)-3-{N-[4-(4-methylpentyn-1-yl)phenyl],N-methanesulfonylamino}-2-(morpholin-4-yl)propionamide] | 106 nM | 113 nM | – | – | – |
